Data: article PMC6349357, “Computational and experimental analysis of bioactive peptide linear motifs in the integrin adhesome” (PLoS ONE, 2019)

Key:
[1] = system: TRAP-activated platelets; assay: Inhibition of TRAP-induced platelet aggregation after pre-incubation with peptide; format: cell-based, human (healthy volunteers); details: for Inhibition, donor 14_06_13: replicate 14_06_13; for Inhibition, donor 18_06_13: replicate 18_06_13; for Inhibition, donor 20_06_13: replicate 20_06_13; for Inhibition, donor 20_08_13: replicate 20_08_13; for Aggregation after TRAP activation, donor h: replicate donor h; for Aggregation after TRAP activation, donor i: replicate donor i; for Aggregation after TRAP activation, donor j: replicate donor j; for Summary of effects of SDC4-derived palmitylated peptides and scrambled controls, 20μM: S2 Table B / S2 Fig, activation of resting platelets and inhibition of aggregation induced by 4 μM TRAP, in words
Procedure: (§1) Blood was drawn from healthy volunteers into a syringe containing a final volume of 15% Acid Citrate Dextrose (ACD). The blood/ACD mixture was then aliquoted into 15 ml Cellstar tubes, at volumes of 5ml per tube, and centrifuged at 150 rcf for 10 minutes to obtain platelet rich plasma (PRP). PRP was then transferred to a 50ml tube using a pipette. The pH was then adjusted to 6.5. Prostaglandin (PGE1) was then added with a final concentration of 1μM. The PRP was then centrifuged at 750 rcf. After centrifugation the platelet poor plasma (PPP) was discarded and the pellet was resuspended in buffer A (6 mM dextrose, 130 mM NaCl, 9 mM NaHCO3, 10 mM sodium citrate, 10 mM Tris base, 3 mM KCl, 0.81 mM KH2PO4 and 0.9 mM MgCl26H2O, pH 7.4). A platelet concentration of 3x10^5/μl or 1x10^6/μl was obtained by dilution depending on the experiment in which they were used. Platelets were left to rest for 45 minutes and supplemented with 1.8mM calcium chloride prior to use.
(§2) A platelet concentration of 3x10^5 /μl was used when performing standard aggregations and a concentration of 1x10^6 /μl was used for sample preparation for western blot analysis. The extent of platelet aggregation was measured by quantifying the optical density of the samples using the Bio-Data PAP-8 aggregometer (platelet aggregation profiler, Horsham, PA, USA). A temperature of 37°C was maintained and samples were stirred using magnets spinning at 1100 rpm. 200 μl of washed platelets was added to each aggregation tube. Different volumes of buffer, peptide and TRAP were added to achieve the desired concentrations. Peptide/buffer was added to each well after two minutes. TRAP, with a final concentration depending on the experiment, was added 6 minutes later and data was collected for an additional 7 minutes.

[2] = system: resting platelets; assay: Platelet aggregation induced by peptide in resting washed platelets (activation); format: cell-based, human (healthy volunteers); details: for Activation, 5μM / Activation, 20μM: S3 Table, n=3; for Activation, 5μM: peptide 5 μM; for Activation, 5μM / Activation, 20μM / Activation, donor 14 06 13 / Activation, donor 20 08 13 / Activation: unit assumed; for Activation, 20μM: peptide 20 μM; for Activation, donor 14 06 13: replicate 14_06_13; for Activation, donor 14 06 13 / Activation, donor 18_06_13 / Activation, donor 20_06_13 / Activation, donor 20 08 13 / Activation, donor 22_08_13_DONOR1 / Activation, donor 22_08_13_DONOR2: SDC4 peptides and controls, 20 μM; for Activation, donor 18_06_13: replicate 18_06_13; for Activation, donor 18_06_13 / Activation, donor 20_06_13: in % (unit assumed); for Activation, donor 20_06_13: replicate 20_06_13; for Activation, donor 20 08 13: replicate 20_08_13; for Activation, donor 22_08_13_DONOR1: replicate 22_08_13_DONOR1; for Activation, donor 22_08_13_DONOR2: replicate 22_08_13_DONOR2; for Activation: platelet aggregation in resting platelets after 6 minutes incubation with peptide, pal-peptides 20 μM, tat-peptides 50 μM, optical density, aggregometer, mean, n>=3; for Aggregation before TRAP activation, donor h: replicate donor h; for Aggregation before TRAP activation, donor i: replicate donor i; for Aggregation before TRAP activation, donor j: replicate donor j
Procedure: as §1, §2

[3] = S3 Table, peptide 5 μM, aggregation after TRAP, n=3
[4] = S3 Table, peptide 20 μM, aggregation after TRAP, n=3
[5] = replicate 22_08_13_DONOR1, peptide 20 μM, TRAP 4 μM
[6] = replicate 22_08_13_DONOR2, peptide 20 μM, TRAP 4 μM
[7] = platelet aggregation induced by 4 μM TRAP in platelets pre-incubated with peptide (low value = inhibition), pal-peptides 20 μM, tat-peptides 50 μM, mean, n>=3
[8] = TRAP 4 μM, pal 20 μM, tat 50 μM

Pal-RMKKKDEGSYD-APTNEFYA [pal-SDC4-JM U SDC4-tail, palmitylated chimeric peptide of SDC4 juxtamembrane and tail regions]
Aggregation (inhibition effects of syndecan-derived peptides) ([1]; S2 Table A, peptide 20 μM, TRAP 4 μM, mean, n=6): 69 | Platelet aggregation remaining after TRAP (low = inhibition) [1, 3]: 63 | Platelet aggregation remaining after TRAP (low = inhibition) [1, 4]: 69 | Inhibition, donor 14_06_13 ([1]; peptide 20 μM, TRAP 4 μM): 75 | Inhibition, donor 18_06_13 ([1]; peptide 20 μM, TRAP 4 μM): 62 | Inhibition, donor 20_06_13 ([1]; peptide 20 μM, TRAP 4 μM): 81 | Inhibition, donor 20_08_13 ([1]; peptide 20 μM, TRAP 4 μM): 70 | Platelet aggregation remaining after TRAP (low = inhibition) [1, 5]: 62 | Platelet aggregation remaining after TRAP (low = inhibition) [1, 6]: 68 | Activation, 5μM [2]: 2% | Activation, 20μM [2]: 2% | Activation, donor 14 06 13 [2]: 3% | Activation, donor 18_06_13 [2]: 2 | Activation, donor 20_06_13 [2]: 2 | Activation, donor 20 08 13 [2]: 3% | Activation, donor 22_08_13_DONOR1 [2]: 1 | Activation, donor 22_08_13_DONOR2 [2]: 2

tat-SKPIGPDDAIDALSSDFTS-(NH2) [tat-CAST_2, tat peptide from calpastatin (CAST)]
Platelet aggregation remaining after TRAP (low = inhibition) [1, 7]: 74 | Aggregation after TRAP activation, donor h [1, 8]: 78 | Aggregation after TRAP activation, donor i [1, 8]: 69 | Aggregation after TRAP activation, donor j [1, 8]: 76 | Activation [2]: 3% | Aggregation before TRAP activation, donor h ([2]; pal 20 μM, tat 50 μM): 3 | Aggregation before TRAP activation, donor i ([2]; pal 20 μM, tat 50 μM): 4 | Aggregation before TRAP activation, donor j ([2]; pal 20 μM, tat 50 μM): 4

pal-KVGFFKR-WEQLLTTIARTINEVENQI [B12p ITGA2b-JM U ACTN1-VBS, palmitylated chimeric peptide]
Platelet aggregation remaining after TRAP (low = inhibition) [1, 3]: 74 | Platelet aggregation remaining after TRAP (low = inhibition) [1, 4]: 66 | Activation, 5μM [2]: 1% | Activation, 20μM [2]: 7%

pal-KVGAAKR-LGKKPIYKK [B19p ITGA2b-JM2 U SDC4-middle, palmitylated chimeric peptide]
Platelet aggregation remaining after TRAP (low = inhibition) [1, 3]: 66 | Platelet aggregation remaining after TRAP (low = inhibition) [1, 4]: 6 | Activation, 5μM [2]: 2% | Activation, 20μM [2]: 3%

pal-KVGAAKR-WEQLLTTIARTINEVENQI [B13p ITGA2b-JM2 U ACTN1-VBS, palmitylated chimeric peptide]
Platelet aggregation remaining after TRAP (low = inhibition) [1, 3]: 75 | Platelet aggregation remaining after TRAP (low = inhibition) [1, 4]: 63 | Activation, 5μM [2]: 3% | Activation, 20μM [2]: 12%

pal-KVGAAKR-TLELDRLMASLS [B21p ITGA2b-JM2 U TGFB1I1-LD, palmitylated chimeric peptide]
Platelet aggregation remaining after TRAP (low = inhibition) [1, 3]: 70 | Platelet aggregation remaining after TRAP (low = inhibition) [1, 4]: 28 | Activation, 5μM [2]: 2% | Activation, 20μM [2]: 1%

SSTLSKKRPPPPPPGHKRTLSD-tat-(NH2) [AMAP1-tat, ASAP1/DDEF2 peptide with C-terminal tat]
Platelet aggregation remaining after TRAP (low = inhibition) [1, 7]: 72 | Aggregation after TRAP activation, donor h [1, 8]: 76 | Aggregation after TRAP activation, donor i [1, 8]: 62 | Aggregation after TRAP activation, donor j [1, 8]: 79 | Activation [2]: 4% | Aggregation before TRAP activation, donor h ([2]; pal 20 μM, tat 50 μM): 4 | Aggregation before TRAP activation, donor i ([2]; pal 20 μM, tat 50 μM): 3 | Aggregation before TRAP activation, donor j ([2]; pal 20 μM, tat 50 μM): 5

Pal-KKAPTNEFYA [Pal-KK-SDC4-tail, palmitylated, slightly extended SDC4 tail peptide …]
Summary of effects of SDC4-derived palmitylated peptides and scrambled controls, 20μM [1]: Inhibitor | Platelet aggregation remaining after TRAP (low = inhibition) [1, 3]: 63 | Platelet aggregation remaining after TRAP (low = inhibition) [1, 4]: 36 | Aggregation after TRAP, peptide alone 1x (A 1x / B 1x) ([1]; TRAP 2 μM after 6 minutes pre-incubation, 4 μM pal-peptides, 10 μM tat-peptides, mean n = 3): 64.67 | Aggregation after TRAP, peptide alone 2x (A 2x / B 2x) ([1]; TRAP 2 μM after 6 minutes pre-incubation, double concentration of 4 μM (pal) / 10 μM (tat), mean n = 3): 3 | Inhibition, donor 14_06_13 ([1]; peptide 20 μM, TRAP 4 μM): 65 | Inhibition, donor 18_06_13 ([1]; peptide 20 μM, TRAP 4 μM): 64 | Inhibition, donor 20_06_13 ([1]; peptide 20 μM, TRAP 4 μM): 71 | Inhibition, donor 20_08_13 ([1]; peptide 20 μM, TRAP 4 μM): 4 | Platelet aggregation remaining after TRAP (low = inhibition) [1, 5]: 2 | Platelet aggregation remaining after TRAP (low = inhibition) [1, 6]: 12 | Activation, 5μM [2]: 2% | Activation, 20μM [2]: 1% | Activation, donor 14 06 13 [2]: 2% | Activation, donor 18_06_13 [2]: -1 | Activation, donor 20_06_13 [2]: 2 | Activation, donor 20 08 13 [2]: 3% | Activation, donor 22_08_13_DONOR1 [2]: 1 | Activation, donor 22_08_13_DONOR2 [2]: 1

pal-TLELDRLMASLS [B23p TGFB1I1-LD, palmitylated TGFB1I1 LD peptide]
Platelet aggregation remaining after TRAP (low = inhibition) [1, 3]: 73 | Platelet aggregation remaining after TRAP (low = inhibition) [1, 4]: 70 | Activation, 5μM [2]: 2% | Activation, 20μM [2]: 3%

pal-WEQLLTTIARTINEVENQI [B3p ACTN1-VBS]
Platelet aggregation remaining after TRAP (low = inhibition) [1, 3]: 76 | Platelet aggregation remaining after TRAP (low = inhibition) [1, 4]: 73 | Activation, 5μM [2]: 2% | Activation, 20μM [2]: 1%

tat-EPDFPPPPPDLE-(NH2) [tat-VCL, tat peptide from VCL]
Platelet aggregation remaining after TRAP (low = inhibition) [1, 7]: 70 | Aggregation after TRAP activation, donor h [1, 8]: 68 | Aggregation after TRAP activation, donor i [1, 8]: 67 | Aggregation after TRAP activation, donor j [1, 8]: 77 | Activation [2]: 4% | Aggregation before TRAP activation, donor h ([2]; pal 20 μM, tat 50 μM): 4 | Aggregation before TRAP activation, donor i ([2]; pal 20 μM, tat 50 μM): 4 | Aggregation before TRAP activation, donor j ([2]; pal 20 μM, tat 50 μM): 4

NTYAFKAKEP [pal-KK-SDC4_tail Control 1, scrambled control of pal-KK-SDC4_tail, reference compound]
Summary of effects of SDC4-derived palmitylated peptides and scrambled controls, 20μM [1]: No effect | Inhibition, donor 20_08_13 ([1]; peptide 20 μM, TRAP 4 μM): 70 | Platelet aggregation remaining after TRAP (low = inhibition) [1, 5]: 76 | Platelet aggregation remaining after TRAP (low = inhibition) [1, 6]: 74 | Activation, donor 20 08 13 [2]: 3% | Activation, donor 22_08_13_DONOR1 [2]: 1 | Activation, donor 22_08_13_DONOR2 [2]: 3

GIESMSQDTEVRSRVVGGS-tat [PTPN1-tat, PTPN1 peptide with C-terminal tat]
Platelet aggregation remaining after TRAP (low = inhibition) [1, 7]: 77 | Aggregation after TRAP activation, donor a ([1]; replicate donor a, TRAP 4 μM, pal 20 μM, tat 50 μM): 73 | Aggregation after TRAP activation, donor b ([1]; replicate donor b, TRAP 4 μM, pal 20 μM, tat 50 μM): 76 | Aggregation after TRAP activation, donor c ([1]; replicate donor c, TRAP 4 μM, pal 20 μM, tat 50 μM): 83 | Aggregation after TRAP activation, donor d ([1]; replicate donor d, TRAP 4 μM, pal 20 μM, tat 50 μM): 75 | Aggregation after TRAP activation, donor e ([1]; replicate donor e, TRAP 4 μM, pal 20 μM, tat 50 μM): 79 | Activation [2]: 3% | Aggregation before TRAP activation, donor a ([2]; replicate donor a, pal 20 μM, tat 50 μM): 3 | Aggregation before TRAP activation, donor b ([2]; replicate donor b, pal 20 μM, tat 50 μM): 4 | Aggregation before TRAP activation, donor c ([2]; replicate donor c, pal 20 μM, tat 50 μM): 5 | Aggregation before TRAP activation, donor d ([2]; replicate donor d, pal 20 μM, tat 50 μM): 4 | Aggregation before TRAP activation, donor e ([2]; replicate donor e, pal 20 μM, tat 50 μM): 3
